In patent US9107940B2, “Compositions and methods for treating and preventing skeletal muscle deficiencies” (The Regents of the University of Michigan, priority 2007, dated 2015):

What was measured:
[1] = tested on: mdx lumbrical (LMB) muscles; experiment: Isometric contraction protocol (20 contractions) inducing force deficit in isolated lumbrical muscles in vitro; design: species or system mouse
From the text: Specific-pathogen-free male mdx mice (C57BL/10ScSn-mdx stock #001801) 2-3 months of age and wild type (WT) C57BL/10 mice 2-5 months of age were obtained from the Jackson Laboratory (Bar Harbor, Me.). Mice were housed in a specific-pathogen-free barrier facility. All experimental procedures were in accordance with the Guide for the Care and Use of Laboratory Animals [DHHS Publication No. 85-23 (NIH), Revised 1985, Office of Science and Health Reports, Bethesda, Md. 20892].
Mice were anesthetized with an intraperitoneal injection of Avertin (tribromoethanol 400 mg/kg). Supplemental doses of Avertin were administered as required to keep the mouse unresponsive to tactile stimuli. The front paws of the mouse were severed and the LMB muscles dissected free from the second digit. The LMB muscles were selected for their extremely small size that ensured all fibres were accessible to externally applied compounds. Based on physical dimensions, LMB muscle mass was estimated to be approximately 0.7 mg. Dissections were performed in a chilled bathing solution, composition in mM: 137 NaCl, 11.9 NaHCO3, 5.0 KCl, 1.8 CaCl2, 0.5 MgCl2, 0.4 NaH2PO4. The isolated LMB muscle was mounted horizontally in a custom-fabricated chamber with the distal tendon attached to a force transducer (Aurora Scientific, Inc., modified Model 400A) and the proximal tendon attached to a servomotor (Aurora Scientific, Inc., Model 318B) by ties composed of 10-0 monofilament nylon suture. Bath temperature was maintained at 25° C. and the chamber was perfused continuously with Tyrode solution (composition in mM: 121 NaCl, 24 NaHCO3, 5.0 KCl, 1.8 CaCl2, 0.5 MgCl2, 0.4 NaH2PO4) maintained at pH 7.3 by bubbling with a 95%/5% O2/CO2 mixture.
Muscles were stimulated electrically by current passed between two platinum electrodes. […] Optimum length (Lo) of the muscle was determined by adjusting its length until maximum twitch force was attained. […]
Data are presented as a mean value±SE. […] When ANOVA was used and significance detected, the Student-Newman-Keuls post hoc comparison was used to assess pairwise differences.

[2] = tested on: WT muscles; details: P188 1 mM or streptomycin 200 μM
Procedure: LMB muscles from WT mice, termed WT muscles, were divided into two groups. One group was exposed to normal Tyrode solution and the other group to a calcium-free Tyrode solution. […] For all treatments, muscles were allowed to incubate in the chamber for 15 minutes prior to commencement of the contraction protocol. […] For calcium-free experiments, CaCl2 was omitted from the Tyrode solution and MgCl2 was increased to 2.3 mM to maintain the concentration of divalent ions.

With `[H]/N=C(/N)N[C@H]1[C@H](O)[C@@H](O)[C@H](O[C@@H]2O[C@@H](C)[C@](O)(C=O)[C@H]2O[C@@H]2O[C@@H](CO)[C@H](O)[C@@H](O)[C@@H]2NC)[C@@H](N/C(N)=N\[H])[C@@H]1O` [streptomycin] the “influence on absolute Po” value ([1]; mdx LMB muscles, P188 1 mM, streptomycin 200 μM) was “did not influence”, the “force generated at the end of the contraction protocol (post-protocol normalized Po)” value ([1]; mdx LMB muscles, P188 1 mM, streptomycin 200 μM in Tyrode, 15 min incubation, untreated mdx 69% of Po) was 84 % of Po and the “contraction-induced force deficit (effect in words)” value ([1]; whole mdx skeletal muscle) was “equally effective in reducing the contraction-induced force deficit”. For the same molecule, the “toxicity to the muscle” value [2] was “not toxic”.
